Results as given in US10676479B2, “Imidazolepyridine compounds and uses thereof” (Novartis AG, priority 2016, dated 2020).

How the values were obtained:
EED (1-441)-His protein = EED (1-441)-His protein (Homo sapiens (Human), UniProt O75530); assay: EED-H3K27Me3 peptide competition binding assay by AlphaScreen; conditions: EED Alphascreen binding Qualified assay
Procedure: Then 4 μL of detection beads mix was added to the plate and incubate in the dark at the rt for 1 h. The final concentration of donor and acceptor beads was 10 μg/mL for each. […] The data were then fit to a dose response equation using the program Helios (Novartis) to get the IC50 values. […] Sebaugh, J. […] Each compound was counter screened to determine if it interfered with the AlphaScreen beads. […] The plates were then incubated for 1 h at rt in dark before being read on EnVison.

[1] = molecular target: wild type PRC2 (wtPRC2) complex (Homo sapiens (Human), UniProt O75530); assay: EED LC-MS assay; assay type: biochemical; conditions: EED LC-MS Qualified assay; read-out: (b) IC50
Procedure: EED LC-MS Assay Representative compounds of the present invention were serially and separately diluted 3-fold in DMSO to obtain a total of eight or twelve concentrations. […] A 6 μL solution of 3 μM of the peptide substrate H3K27Me0 (histone H3[21-44]-biotin) in reaction buffer was added to initiate each reaction. […] The data were then fit to a dose response equation using the program Helios to get the IC50 values of the test compound.

[2] = system: H3K27 methylation in G401 cell; assay: ELISA (H3K27 methylation) assay; assay type: cell-based; conditions: Homo sapiens, G-401, ELISA Qualified assay, 48 h, read-out: (c) IC50
Procedure: ELISA (H3K27 Methylation) Assay
Representative compounds of the present invention were serially and separately diluted 3-fold in DMSO to obtain a total of eight or twelve concentrations. Then the compounds were added to G401 cell cultured in 384-well plate at 1:500 dilution to obtain the highest concentration of 20 μM. The cells were further cultured for 48 h before ELISA procedure.
ELISA protocol: Cell lysates were transferred to the wells of a 384-well plate and the final volume was adjusted to 50 μL per well with PBS. The plate was sealed, centrifuged at 2,000 rpm for 2 min and incubated at 4° C. for about 16 h. The plate was washed with TBST buffer (1×TBS (10×TBS: 24.2 g Tris (Sigma, T6066), 80 g NaCl (Sigma, S3014) to 1 L of water and adjust pH to 7.6 with HCl) with 0.1% Tween-20). Blocking buffer (TBST, 5% BSA; 50 μL per well) was added and the plate was incubated for 1 h at rt. The blocking buffer was removed and primary antibody was added (30 μL per well). […] The primary antibody was incubated in the plate at rt for 1 h. The wells were washed with TBST and incubated with secondary antibody for 1 h at rt. […] After 1 h of incubation at rt, the wells were washed with TBST. […] The signal was read using a PerkinElmer Envision Reader. The H3K27 methylation readouts were normalized using H3 signal and then percentage inhibition was calculated against the samples treated with DMSO. The data were then fit to a dose response curve using the program Helios to get the IC50 values of the test compound.

wild type PRC2 (wtPRC2) complex, sequence (O75530 whole entry): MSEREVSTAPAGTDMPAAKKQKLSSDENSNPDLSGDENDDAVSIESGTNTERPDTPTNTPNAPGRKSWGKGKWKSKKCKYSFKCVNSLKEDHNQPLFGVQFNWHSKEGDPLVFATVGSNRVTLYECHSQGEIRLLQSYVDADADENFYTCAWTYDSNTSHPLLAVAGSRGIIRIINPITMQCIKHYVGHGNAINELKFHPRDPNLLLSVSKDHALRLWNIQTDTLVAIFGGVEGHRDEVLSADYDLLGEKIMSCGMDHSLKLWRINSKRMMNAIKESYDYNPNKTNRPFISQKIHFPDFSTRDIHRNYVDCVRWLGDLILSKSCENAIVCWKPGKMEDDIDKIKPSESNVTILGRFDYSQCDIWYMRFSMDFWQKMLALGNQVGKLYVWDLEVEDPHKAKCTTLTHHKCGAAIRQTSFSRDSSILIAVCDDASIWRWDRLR
wild type PRC2 (wtPRC2) complex, sequence (Q15910 whole entry partner): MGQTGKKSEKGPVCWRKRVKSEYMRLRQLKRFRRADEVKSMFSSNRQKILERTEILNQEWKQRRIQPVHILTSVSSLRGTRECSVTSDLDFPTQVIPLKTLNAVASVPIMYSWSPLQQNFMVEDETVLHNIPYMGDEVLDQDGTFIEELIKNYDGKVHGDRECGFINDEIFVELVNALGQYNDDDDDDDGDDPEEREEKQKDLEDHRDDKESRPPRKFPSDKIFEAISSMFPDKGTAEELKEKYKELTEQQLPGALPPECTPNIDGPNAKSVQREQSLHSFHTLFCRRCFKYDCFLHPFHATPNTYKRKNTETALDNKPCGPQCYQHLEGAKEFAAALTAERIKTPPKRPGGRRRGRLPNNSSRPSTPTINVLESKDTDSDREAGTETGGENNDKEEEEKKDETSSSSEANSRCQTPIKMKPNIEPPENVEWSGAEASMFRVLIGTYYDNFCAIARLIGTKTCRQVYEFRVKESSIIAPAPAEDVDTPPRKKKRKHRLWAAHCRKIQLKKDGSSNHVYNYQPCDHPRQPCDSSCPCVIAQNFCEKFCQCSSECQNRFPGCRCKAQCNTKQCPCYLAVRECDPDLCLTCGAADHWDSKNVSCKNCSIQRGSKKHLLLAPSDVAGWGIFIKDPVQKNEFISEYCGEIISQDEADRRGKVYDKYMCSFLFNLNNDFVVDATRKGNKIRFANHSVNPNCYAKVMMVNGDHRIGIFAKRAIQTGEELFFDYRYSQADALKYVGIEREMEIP
wild type PRC2 (wtPRC2) complex, sequence (Q15022 whole entry partner): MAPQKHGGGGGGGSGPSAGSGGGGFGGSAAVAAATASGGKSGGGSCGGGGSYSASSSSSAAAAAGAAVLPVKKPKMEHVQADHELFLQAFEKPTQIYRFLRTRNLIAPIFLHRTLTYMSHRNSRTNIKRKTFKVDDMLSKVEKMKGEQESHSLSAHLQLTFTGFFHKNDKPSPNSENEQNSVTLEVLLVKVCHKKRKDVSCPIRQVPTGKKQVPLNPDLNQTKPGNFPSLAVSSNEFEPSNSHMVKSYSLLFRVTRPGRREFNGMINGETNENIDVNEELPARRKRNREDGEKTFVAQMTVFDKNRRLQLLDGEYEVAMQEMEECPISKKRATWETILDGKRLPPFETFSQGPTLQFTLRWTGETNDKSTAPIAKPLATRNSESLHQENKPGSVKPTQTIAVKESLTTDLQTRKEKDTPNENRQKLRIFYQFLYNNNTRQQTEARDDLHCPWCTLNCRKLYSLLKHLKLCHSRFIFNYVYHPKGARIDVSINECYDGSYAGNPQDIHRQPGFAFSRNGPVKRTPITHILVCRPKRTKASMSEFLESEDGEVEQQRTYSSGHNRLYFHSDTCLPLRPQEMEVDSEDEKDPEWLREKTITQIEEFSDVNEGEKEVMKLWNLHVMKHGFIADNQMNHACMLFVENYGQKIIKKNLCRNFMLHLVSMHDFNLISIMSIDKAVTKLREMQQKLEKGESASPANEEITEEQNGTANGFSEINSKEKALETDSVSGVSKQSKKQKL
EED (1-441)-His protein, sequence (O75530 whole entry): as the sequence (O75530 whole entry) above

Row | Structure (SMILES) | IC50 (EED (1-441)-His protein) | IC50 [1] | IC50 [2]
1 | CCOC(=O)c1ncn2c(NCc3cc(OC)c(F)cc3F)ncc(-c3ccc(S(C)(=O)=O)cc3)c12 [Example 7, Ethyl 5-((2,4-difluoro-5-methoxybenzyl)amino)-8-(4-(methylsulfonyl)phenyl)imidazo[1,5-c]pyrimidine-1-carboxylate] | 16.8 nM | 16.8 nM | 236 nM
2 | Cc1nc(C(F)(F)CO)ccc1-c1cnc(NCc2c(F)ccc3c2CCO3)n2cncc12 [Example 56, 2,2-difluoro-2-(5-(5-(((5-fluoro-2,3-dihydrobenzofuran-4-yl)methyl)amino)imidazo[1,5-c]pyrimidin-8-yl)-6-methylpyridin-2-yl)ethan-1-ol] | 4.8 nM | 18.2 nM | 20.9 nM
3 | CN(C)S(=O)(=O)c1ccc(-c2cnc(NCc3c(F)ccc4c3CCO4)n3cncc23)cc1 [Example 18, 4-(5-(((5-fluoro-2,3-dihydrobenzofuran-4-yl)methyl)amino)imidazo[1,5-c]pyrimidin-8-yl)-N,N-dimethylbenzenesulfonamide] | 10.1 nM | 15.1 nM | 46 nM
4 | Fc1ccc2c(c1CNc1ncc(-c3cccnc3F)c3cncn13)CCO2 [Example 21, N-((5-fluoro-2,3-dihydrobenzofuran-4-yl)methyl)-8-(2-fluoropyridin-3-yl)imidazo[1,5-c]pyrimidin-5-amine] | 19.5 nM | 21.7 nM | 35.4 nM
5 | N#Cc1ncn2c(NCc3c(F)ccc4c3CCO4)ncc(-c3ccc(CN4CCCC4)cc3)c12 [Example 71, 5-(((5-fluoro-2,3-dihydrobenzofuran-4-yl)methyl)amino)-8-(4-(pyrrolidin-1-ylmethyl)phenyl)imidazo[1,5-c]pyrimidine-1-carbonitrile] | 7.9 nM | 18 nM | 4.1 nM
6 | Fc1ccc2c(c1CNc1ncc(-c3cnccc3C(F)F)c3cncn13)CCO2 [Example 52, 8-(4-(difluoromethyl)pyridin-3-yl)-N-((5-fluoro-2,3-dihydrobenzofuran-4-yl)methyl)imidazo[1,5-c]pyrimidin-5-amine] | 10.2 nM | 17.8 nM | 42.5 nM
7 | Cc1ncc(-c2cnc(NCc3c(F)ccc4c3CCO4)n3cncc23)c(C)n1 [Example 1, 8-(2,4-Dimethylpyrimidin-5-yl)-N-((5-fluoro-2,3-dihydrobenzofuran-4-yl)methyl)imidazo[1,5-c]pyrimidin-5-amine] | 7.2 nM | 13.2 nM | 24.8 nM
8 | Cc1c(-c2cnc(NCc3c(F)ccc4c3CCO4)n3cncc23)ccnc1CF [Example 58, N-((5-fluoro-2,3-dihydrobenzofuran-4-yl)methyl)-8-(2-(fluoromethyl)-3-methylpyridin-4-yl)imidazo[1,5-c]pyrimidin-5-amine] | 14.9 nM | 25.2 nM | 36.1 nM
9 | Cc1cc(S(C)(=O)=O)ccc1-c1cnc(NCc2c(F)ccc3c2CCO3)n2cncc12 [Example 42, N-((5-fluoro-2,3-dihydrobenzofuran-4-yl)methyl)-8-(2-methyl-4-(methylsulfonyl)phenyl)imidazo[1,5-c]pyrimidin-5-amine] | 10.4 nM | 8.5 nM | 79.5 nM
10 | c1cc(CNc2ncc(-c3ccc(N4CCNCC4)nc3)c3cncn23)c2ccoc2c1 [Example 66, N-(benzofuran-4-ylmethyl)-8-(6-(piperazin-1-yl)pyridin-3-yl)imidazo[1,5-c]pyrimidin-5-amine] | 72.1 nM | 49.3 nM | 444 nM
11 | c1cc(CNc2ncc(-c3ccncc3)c3cncn23)c2ccoc2c1 [Example 65, N-(benzofuran-4-ylmethyl)-8-(pyridin-4-yl)imidazo[1,5-c]pyrimidin-5-amine] | 285 nM | 93.2 nM | 641 nM
12 | Cn1cncc1-c1cnc(NCc2c(F)ccc3c2CCO3)n2cnc(C#N)c12 [Example 85, 5-(((5-fluoro-2,3-dihydrobenzofuran-4-yl)methyl)amino)-8-(1-methyl-1H-imidazol-5-yl)imidazo[1,5-c]pyrimidine-1-carbonitrile] | 4.5 nM | 17.2 nM | 2.8 nM
13 | N#Cc1ncn2c(NCc3c(F)ccc4c3CCO4)ncc(Br)c12 [Example 70, 8-bromo-5-(((5-fluoro-2,3-dihydrobenzofuran-4-yl)methyl)amino)imidazo[1,5-c]pyrimidine-1-carbonitrile] | 27.9 nM | 48.6 nM | 86.8 nM
14 | CCC(O)c1ncc(-c2cnc(NCc3c(F)ccc4c3CCO4)n3cnc(C#N)c23)c(C)n1 (stereo not drawn) [Example 80, 5-(((5-fluoro-2,3-dihydrobenzofuran-4-yl)methyl)amino)-8-(2-(1-hydroxypropyl)-4-methylpyrimidin-5-yl)imidazo[1,5-c]pyrimidine-1-carbonitrile] | 10.5 nM | 34.5 nM | 14.2 nM
15 | Cc1nn(CCO)c(C)c1-c1cnc(NCc2c(F)ccc3c2CCO3)n2cnc(C#N)c12 [Example 88, 5-(((5-fluoro-2,3-dihydrobenzofuran-4-yl)methyl)amino)-8-(1-(2-hydroxyethyl)-3,5-dimethyl-1H-pyrazol-4-yl)imidazo[1,5-c]pyrimidine-1-carbonitrile] | 3.4 nM | 11.7 nM | 13 nM

Further lines, results first:

Row | IC50 (EED (1-441)-His protein) | IC50 [1] | IC50 [2] | Structure (SMILES)
16 | 5.4 nM | 5.9 nM | 0.7 nM | CCOC(=O)c1ncn2c(NCc3c(F)ccc4c3CCO4)ncc(-c3ccc(S(C)(=O)=O)cc3)c12 [Example 92, ethyl 5-(((5-fluoro-2,3-dihydrobenzofuran-4-yl)methyl)amino)-8-(4-(methylsulfonyl)phenyl)imidazo[1,5-c]pyrimidine-1-carboxylate]
17 | 29.6 nM | 42.5 nM | 195 nM | COc1cc(CNc2ncc(-c3cccnc3C)c3c(C#N)ncn23)c(F)cc1F [Example 89, 5-((2,4-difluoro-5-methoxybenzyl)amino)-8-(2-methylpyridin-3-yl)imidazo[1,5-c]pyrimidine-1-carbonitrile]
18 | 10.5 nM | 12.1 nM | 13.1 nM | Cc1ncccc1-c1ncn2c(NCc3c(F)ccc4c3CCO4)ncc(-c3ccc(S(C)(=O)=O)cc3)c12 [Example 112, N-((5-fluoro-2,3-dihydrobenzofuran-4-yl)methyl)-1-(2-methylpyridin-3-yl)-8-(4-(methylsulfonyl)phenyl)imidazo[1,5-c]pyrimidin-5-amine]
19 | 8.4 nM | 31.9 nM | 22.8 nM | Cc1ccc(-c2ncn3c(NCc4c(F)ccc5c4CCO5)ncc(-c4cnc(C)nc4C)c23)cn1 [Example 114, 8-(2,4-dimethylpyrimidin-5-yl)-N-((5-fluoro-2,3-dihydrobenzofuran-4-yl)methyl)-1-(6-methylpyridin-3-yl)imidazo[1,5-c]pyrimidin-5-amine]
20 | 10.8 nM | 30.4 nM | 40.1 nM | Cc1ncccc1-c1cnc(NCc2c(F)ccc3c2CCO3)n2cnc(C(=O)N(C)C)c12 [Example 105, 5-(((5-fluoro-2,3-dihydrobenzofuran-4-yl)methyl)amino)-N,N-dimethyl-8-(2-methylpyridin-3-yl)imidazo[1,5-c]pyrimidine-1-carboxamide]
21 | 7.7 nM | 6.9 nM | 25.6 nM | Cc1ncccc1-c1cnc(NCc2c(F)ccc3c2CCO3)n2cnc(C(=O)NCCO)c12 [Example 107, 5-(((5-fluoro-2,3-dihydrobenzofuran-4-yl)methyl)amino)-N-(2-hydroxyethyl)-8-(2-methylpyridin-3-yl)imidazo[1,5-c]pyrimidine-1-carboxamide]
22 | 4.8 nM | 5.5 nM | 2.6 nM | CS(=O)(=O)c1ccc(-c2cnc(NCc3c(F)ccc4c3CCO4)n3cnc(-c4ncco4)c23)cc1 [Example 118, N-((5-fluoro-2,3-dihydrobenzofuran-4-yl)methyl)-8-(4-(methylsulfonyl)phenyl)-1-(oxazol-2-yl)imidazo[1,5-c]pyrimidin-5-amine]
23 | 24 nM | 24.8 nM | 31.6 nM | CCOC(=O)c1ncn2c(NCc3c(F)cccc3OC)ncc(-c3cnc(C)nc3C)c12 [Example 98, ethyl 8-(2,4-dimethylpyrimidin-5-yl)-5-((2-fluoro-6-methoxybenzyl)amino)imidazo[1,5-c]pyrimidine-1-carboxylate]
